In brackets after ≈: the same amount, converted by molar mass. Where two headings read alike, the source gives them in different places.
Assays:
[1] = Plasma levels after transdermal administration to hairless mice; format: in vivo
Description: Tested compounds (20% solution or suspension in 1 mL isopropanol) are administered transdermally to the skin of intact hairless mice. The plasma levels of the parent compounds are determined by HPLC.

[2] = as above; conditions: mouse, in vivo, po
[3] = test system: human skin tissue; conditions: pH 7.4
[4] = test system: mice; experiment: Analgesic activity, acetic acid writhing; format: in vivo; conditions: 30 min before acetic acid
Description: The prodrug compounds are administered either transdermally or orally. The parent compounds are administered orally. The number of writhing that occurred when mice are administered the acetic acid solution are counted, and the rate of inhibition based on the control group which was not pretreated with any test compounds is calculated. […] The A group is the control group.

[5] = test system: mice; experiment: Analgesic activity, D'Amour-Smith method (tail heat, pain threshold); format: in vivo; conditions: 200 mg/kg transdermally vs 200 mg/kg diflunisal orally
Description: After the tested compounds are administered (the dosages for each test compounds are specified in FIG. 3, prodrug compounds are administered orally and transdermally respectively in different groups, while parent compounds are administered orally) to a group of mice (six mice every group), the tails of mice are exposed to heat and the prolongation time of pain threshold is determined. […] The prodrug compounds show similar analgesic activities when the same dosages are administered orally or transdermally. (FIG. 3)

[6] = test system: rat; conditions: rats;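 also: acute toxicity in rats expressed as LD50, determined for both prodrugs and their parent compounds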
Description: The acute toxicity of the prodrug compounds and parent compounds are measured by LD50 of rat.

[7] = test system: rats; experiment: Antipyretic activity, E. coli suspension as pyrogen; format: in vivo; conditions: in °C (unit assumed)
Description: Rats are administered with sterilized E. coli suspension as a pyrogen. Each group of rats are administered with a prodrug compounds or parent compounds at a dosage specified below. The prodrug compounds are administered either orally or transdermally. The parent compounds are administered orally.

[8] = Distribution of prodrug and metabolites in tissues after application to the back of killed rats; format: in vivo; conditions: Wistar, rat, 50 mg/kg, 3 h after 50 mg/kg prodrug citric acid salt on the back of killed rat, 37° C.
Description: The mixture was centrifuged for 5 minutes at 16,000 rpm. The supernatant (2 ml) was collected and evaporated to dryness.

[9] = Solubility in water / aqueous solubility of HPPs and parent drugs; conditions: water

## O=C(O)CC(O)c1ccc(-c2ccc(Cl)cc2)o1 (centres unmarked) [Orpanoxin, orpanoxin]
[1]; mouse, in vivo
  Peak plasma concentration after parent compound: 10 mg/L
[2]
  t, time to peak plasma level after parent compound: 2 to 4 h
[3]
  In vitro penetration rate (apparent flux), parent compounds: 30 μg/cm^2/h

## CC(=O)O.CCN(CC)CCOC(=O)c1cc(-c2ccc(F)cc2F)ccc1O [diethylaminoethyl 5-(2,4-difluorophenyl) salicylate.AcOH]
[1]; mouse, in vivo
  Peak plasma concentration of parent compound after prodrug compound: 50 mg/L
  t, time to peak plasma level of parent compound after prodrug compound: 30 min
[4]; 50 mg/kg transdermally
  % (rate of writhing inhibition): 62%
  No. of Writhing: 13.2
[4]; 100 mg/kg transdermally
  % (rate of writhing inhibition): 71%
  No. of Writhing: 10.2
[5]
  analgesic activity, prolongation time of pain threshold of mice tails: stronger analgesic activity
[3]
  In vitro penetration rate (apparent flux), prodrug compounds: 100 μg/cm^2/h
[6]
  LD50 of HPP: 1000 mg/kg
[7]; 100 mg/kg transdermally
  body temperature, t = 0 min: 37.22 ± 0.07
  body temperature, t = 90 min: 36.42 ± 0.06
  body temperature, t = 180 min: 36.40 ± 0.05
  body temperature, t = 270 min: 36.47 ± 0.08
[7]; 150 mg/kg transdermally
  body temperature, t = 0 min: 37.26 ± 0.08
  body temperature, t = 90 min: 36.20 ± 0.05
  body temperature, t = 180 min: 36.30 ± 0.07
  body temperature, t = 270 min: 36.31 ± 0.08

## CN1C(C(=O)Nc2nccs2)=C(O)c2ccccc2S1(=O)=O [Sudoxiam, sudoxiam]
[1]; mouse, in vivo
  Peak plasma concentration after parent compound: 0.1 mg/L
[2]
  t, time to peak plasma level after parent compound: 2 to 4 h
[3]
  In vitro penetration rate (apparent flux), parent compounds: <1 μg/cm^2/h

## O=C(O)c1ccccc1O [salicylic acid]
[1]; parent compound administered (time when taken orally)
  t, time to peak plasma level after parent compound: 1 to 2 h
[1]; parent compound administered, hairless mice
  Peak plasma concentration after parent compound: 0.1 mg/L
[8]; read-out: amount in Bone
  concentration at 3 h: 35000 ± 6000 ng/g
[8]; read-out: amount in Brain
  concentration at 3 h: 30000 ± 6000 ng/g
[8]; read-out: amount in Liver
  concentration at 3 h: 45000 ± 8000 ng/g
[8]; read-out: amount in Plasma
  concentration at 3 h: 65 ± 10 µg/mL
[9]
  solubility: 100 µg/mL (≈ 724 µM)
[3]; human, 20 %
  In vitro penetration rate (apparent flux), parent compounds: <1 μg/cm^2/h

## salicylsalicylic acid [Salsalate, reference compound]
[1]; mouse, in vivo
  Peak plasma concentration after parent compound: 0.1 mg/L
[2]
  t, time to peak plasma level after parent compound: 1 to 2 h
[3]
  In vitro penetration rate (apparent flux), parent compounds: <1 μg/cm^2/h
[6]
  LD50 of parent drug: 1500 mg/kg

From patent US20210353579A1, “HIGH PENETRATION COMPOSITIONS AND USES THEREOF” (Techfields Pharma Co., Ltd., priority 2006, published 2021)
